The values that follow are results of earlier work, collected in patent US11285107B2, “Process for manufacturing porous silica particles loaded with at least one bioactive compound adapted for lung, nasal, sublingual, and/or pharyngeal delivery” (Nanologica AB, priority 2017, dated 2022).

`NCC(=O)Nc1ccc(-n2nc(C(F)(F)F)cc2-c2ccc3c(ccc4ccccc43)c2)cc1` [OSU-03012, 2-amino-N-(4-(5-(phenanthren-2-yl)-3-(trifluoromethyl)-1H-pyrazol-1-yl)phenyl)acetamide]: the “solubility in water” value was “insoluble in water”.
Take `CCN(CC)CCNC(=O)c1cc(Cl)c(N)cc1OC` [metoclopramide]: the solubility in water is over 6000 µg/mL.
